According to ChEMBL document CHEMBL2407027, “(3R,4S,5R,6R,7S)-3,4,5,7-Tetrahydroxyconidine, an azetidine analogue of 6,7-diepicastanospermine and a conformationally constrained d-deoxyaltronojirimycin, from l-arabinose” (Bioorg Med Chem, 2013):

Assays:
Aspergillus niger [1] = assay: Inhibition of Aspergillus niger amyloglucosidase at 1000 uM
Aspergillus niger [2] = assay: Inhibition of Aspergillus niger beta-glucosidase at 1000 uM
Sus scrofa = species on record: Sus scrofa; assay: Inhibition of porcine kidney alpha,alpha-trehalase at 1000 uM
Coffea = assay: Inhibition of coffee beans alpha-galactosidase at 1000 uM
Escherichia coli = assay: Inhibition of Escherichia coli beta-glucuronidase at 1000 uM
Penicillium decumbens = assay: Inhibition of Penicillium decumbens alpha-L-rhamnosidase at 1000 uM
[3] = Inhibition of rat beta-galactosidase
[4] = biological target: T1, Beta-glucuronidase (Bos taurus) (UniProt A3KMY8); assay: Inhibition of bovine liver beta-glucuronidase at 1000 uM
T1 sequence (whole entry): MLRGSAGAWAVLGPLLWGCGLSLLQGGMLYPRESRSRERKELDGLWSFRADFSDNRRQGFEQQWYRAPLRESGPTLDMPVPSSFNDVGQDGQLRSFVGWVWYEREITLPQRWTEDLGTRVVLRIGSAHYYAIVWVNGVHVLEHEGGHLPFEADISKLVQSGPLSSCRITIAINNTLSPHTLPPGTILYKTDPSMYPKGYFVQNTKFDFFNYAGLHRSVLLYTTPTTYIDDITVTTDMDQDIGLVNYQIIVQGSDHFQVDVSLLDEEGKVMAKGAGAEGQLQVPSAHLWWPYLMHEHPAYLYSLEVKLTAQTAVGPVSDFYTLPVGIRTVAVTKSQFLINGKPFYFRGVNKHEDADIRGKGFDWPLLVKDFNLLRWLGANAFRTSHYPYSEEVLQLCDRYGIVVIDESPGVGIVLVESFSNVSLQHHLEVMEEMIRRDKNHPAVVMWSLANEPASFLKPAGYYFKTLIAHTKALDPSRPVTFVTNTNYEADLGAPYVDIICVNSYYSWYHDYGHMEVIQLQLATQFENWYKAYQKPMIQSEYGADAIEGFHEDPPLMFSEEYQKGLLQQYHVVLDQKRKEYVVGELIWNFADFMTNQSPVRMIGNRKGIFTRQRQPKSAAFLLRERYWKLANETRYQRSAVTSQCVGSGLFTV

Saccharomyces cerevisiae = assay: Inhibition of yeast alpha-glucosidase at 1000 uM
[5] = Inhibition of rhizopus amyloglucosidase
Prunus dulcis = assay: Inhibition of almond beta-glucosidase at 1000 uM
[6] = biological target: T2, Tissue alpha-L-fucosidase (Bos taurus) (UniProt Q2KIM0); assay: Inhibition of bovine alpha-L-fucosidase at 1000 uM
T2 sequence (whole entry): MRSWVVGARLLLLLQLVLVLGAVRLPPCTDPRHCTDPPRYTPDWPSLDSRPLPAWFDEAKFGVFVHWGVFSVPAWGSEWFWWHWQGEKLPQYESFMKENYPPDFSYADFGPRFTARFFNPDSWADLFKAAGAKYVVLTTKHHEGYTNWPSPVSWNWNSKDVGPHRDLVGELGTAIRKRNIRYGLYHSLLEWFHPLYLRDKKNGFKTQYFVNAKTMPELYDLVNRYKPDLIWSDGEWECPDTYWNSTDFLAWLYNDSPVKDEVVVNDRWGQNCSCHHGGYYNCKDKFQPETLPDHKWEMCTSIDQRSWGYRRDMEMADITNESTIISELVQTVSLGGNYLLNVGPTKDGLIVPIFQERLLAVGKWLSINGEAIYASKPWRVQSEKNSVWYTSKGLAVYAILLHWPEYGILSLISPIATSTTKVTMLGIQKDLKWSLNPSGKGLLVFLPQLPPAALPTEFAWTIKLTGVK

Oryza sativa = assay: Inhibition of rice alpha-glucosidase at 1000 uM
[7] = biological target: T3, Beta-galactosidase (Bos taurus) (UniProt Q58D55); assay: Inhibition of bovine liver beta-galactosidase at 1000 uM
T3 sequence (whole entry): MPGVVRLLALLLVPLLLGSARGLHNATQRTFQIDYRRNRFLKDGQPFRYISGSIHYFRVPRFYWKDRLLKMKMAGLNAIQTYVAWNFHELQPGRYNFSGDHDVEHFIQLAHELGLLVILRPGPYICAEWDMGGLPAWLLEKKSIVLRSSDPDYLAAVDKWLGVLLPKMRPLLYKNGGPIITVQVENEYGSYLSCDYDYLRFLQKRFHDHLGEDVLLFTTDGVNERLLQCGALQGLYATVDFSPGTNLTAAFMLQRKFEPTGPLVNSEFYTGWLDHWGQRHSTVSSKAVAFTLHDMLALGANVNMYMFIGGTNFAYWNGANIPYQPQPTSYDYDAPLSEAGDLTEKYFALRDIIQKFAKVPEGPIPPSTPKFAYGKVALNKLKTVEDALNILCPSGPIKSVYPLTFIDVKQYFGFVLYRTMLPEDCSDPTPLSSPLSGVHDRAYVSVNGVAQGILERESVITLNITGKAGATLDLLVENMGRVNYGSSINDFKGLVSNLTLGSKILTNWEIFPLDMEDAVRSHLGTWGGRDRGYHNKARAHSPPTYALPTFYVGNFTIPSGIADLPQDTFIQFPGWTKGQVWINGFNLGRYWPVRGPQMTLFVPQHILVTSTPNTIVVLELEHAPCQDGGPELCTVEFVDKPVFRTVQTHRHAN

Helix pomatia = assay: Inhibition of snail beta-mannosidase at 1000 uM
[8] = biological target: T4, Glucosylceramidase (Bos taurus) (UniProt Q2KHZ8); assay: Inhibition of bovine liver beta-glucosidase at 1000 uM
T4 sequence (whole entry): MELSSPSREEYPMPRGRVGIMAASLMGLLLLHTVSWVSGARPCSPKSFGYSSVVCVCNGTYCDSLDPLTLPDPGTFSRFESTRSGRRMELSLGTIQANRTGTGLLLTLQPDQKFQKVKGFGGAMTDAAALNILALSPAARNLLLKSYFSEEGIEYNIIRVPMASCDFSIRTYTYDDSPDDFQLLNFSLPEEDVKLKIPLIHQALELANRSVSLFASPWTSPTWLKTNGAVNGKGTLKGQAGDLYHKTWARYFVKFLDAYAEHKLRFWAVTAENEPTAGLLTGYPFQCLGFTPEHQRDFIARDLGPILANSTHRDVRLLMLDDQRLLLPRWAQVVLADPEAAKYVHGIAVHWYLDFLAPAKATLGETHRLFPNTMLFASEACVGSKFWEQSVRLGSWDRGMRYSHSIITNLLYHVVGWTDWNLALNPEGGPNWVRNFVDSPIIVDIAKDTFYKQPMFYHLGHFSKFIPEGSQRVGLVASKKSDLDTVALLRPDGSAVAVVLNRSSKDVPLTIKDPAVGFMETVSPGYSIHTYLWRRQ

[9] = biological target: T5, Alpha-glucosidase (Aspergillus niger) (UniProt P56526); assay: Inhibition of Aspergillus niger alpha-glucosidase at 1000 uM
T5 sequence (whole entry): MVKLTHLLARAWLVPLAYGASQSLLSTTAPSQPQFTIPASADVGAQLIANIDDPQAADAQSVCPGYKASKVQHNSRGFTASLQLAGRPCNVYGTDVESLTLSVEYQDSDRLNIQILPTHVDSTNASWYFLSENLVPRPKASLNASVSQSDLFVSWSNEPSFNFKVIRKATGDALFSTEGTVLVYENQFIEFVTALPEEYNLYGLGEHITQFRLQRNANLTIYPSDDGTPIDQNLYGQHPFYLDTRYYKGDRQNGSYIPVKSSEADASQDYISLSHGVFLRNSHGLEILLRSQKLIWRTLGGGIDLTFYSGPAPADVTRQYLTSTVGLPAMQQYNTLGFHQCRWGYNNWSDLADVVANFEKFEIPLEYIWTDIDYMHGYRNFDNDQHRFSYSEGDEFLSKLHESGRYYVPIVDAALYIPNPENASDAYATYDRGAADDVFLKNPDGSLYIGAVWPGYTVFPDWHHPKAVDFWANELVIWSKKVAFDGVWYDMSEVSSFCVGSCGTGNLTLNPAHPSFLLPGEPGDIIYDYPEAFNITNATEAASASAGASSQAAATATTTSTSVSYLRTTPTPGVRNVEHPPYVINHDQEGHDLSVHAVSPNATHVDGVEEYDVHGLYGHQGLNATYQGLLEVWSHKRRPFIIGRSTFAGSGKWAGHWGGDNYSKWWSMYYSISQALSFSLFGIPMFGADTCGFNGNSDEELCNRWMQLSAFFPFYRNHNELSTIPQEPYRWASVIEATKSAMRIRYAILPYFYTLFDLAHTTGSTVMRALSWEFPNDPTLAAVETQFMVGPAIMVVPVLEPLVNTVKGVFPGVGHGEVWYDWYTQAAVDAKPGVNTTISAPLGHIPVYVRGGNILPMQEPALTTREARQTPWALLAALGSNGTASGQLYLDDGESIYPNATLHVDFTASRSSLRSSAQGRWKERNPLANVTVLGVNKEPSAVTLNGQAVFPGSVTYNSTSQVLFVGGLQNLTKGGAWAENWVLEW

Rattus norvegicus [10] = species on record: Rattus norvegicus; assay: Inhibition of rat intestinal alpha-glucosidase at 1000 uM
[11] = Inhibition of Aspergillus niger amyloglucosidase
Rattus norvegicus [12] = species on record: Rattus norvegicus; assay: Inhibition of rat intestinal beta-galactosidase at 1000 uM
[13] = Inhibition of Penicillium decumbens alpha-L-rhamnosidase
Alpha-glucosidase = biological target: T6, Alpha-glucosidase (Aspergillus niger, UniProt P56526); assay: Inhibition of Aspergillus niger alpha-glucosidase
T6 sequence (P56526 whole entry): T5 sequence (whole entry)

Rhizopus = assay: Inhibition of rhizopus amyloglucosidase at 1000 uM
[14] = biological target: T7, Tissue alpha-L-fucosidase (Bos taurus, UniProt Q2KIM0); assay: Inhibition of bovine alpha-L-fucosidase
T7 sequence (Q2KIM0 whole entry): T2 sequence (whole entry)

[15] = Inhibition of almond beta-glucosidase; design: species or system Prunus dulcis
[16] = Inhibition of rat intestinal alpha-glucosidase

inhibition (Aspergillus niger [1]) [%] | inhibition (Aspergillus niger [2]) [%] | inhibition (Sus scrofa) [%] | inhibition (Coffea) [%] | inhibition (Escherichia coli) [%] | inhibition (Penicillium decumbens) [%] | inhibition [4] [%] | inhibition (Saccharomyces cerevisiae) [%] | inhibition (Oryza sativa) [%] | inhibition [7] [%] | inhibition (Helix pomatia) [%] | inhibition [9] [%] | inhibition (Rattus norvegicus [12]) [%] | Compound | IC50 [5] [µM] | inhibition (Prunus dulcis) [%] | inhibition [6] [%] | inhibition [8] [%] | inhibition (Rattus norvegicus [10]) [%] | IC50 [11] [µM] | also measured
– | – | – | – | – | – | – | – | – | – | – | – | – | O[C@H]1[C@H](O)CN2CCCC[C@H]12 [(-)-LENTIGINOSINE] | – | – | – | – | – | 32 | –
3 | 1.2 | 5.2 | 0 | 8.9 | 11.1 | 4.2 | 3.1 | 2.7 | 13.4 | 0 | 0 | 0 | O=C1CC[C@H](O)[C@H]2[C@@H](O)CN12 | – | 0 | 0 | 14.9 | 25.2 | – | inhibition (Rhizopus): 3.8%
– | – | – | – | – | – | – | – | – | – | – | – | – | O[C@@H]1[C@H](O)[C@H]2[C@@H](O)CCN2C[C@H]1O | – | – | – | – | – | 8 | –
5 | 1.8 | 2.1 | 20.5 | 0 | 2.1 | 7.4 | 1.4 | 7.2 | 19.9 | 0 | 19.1 | 44.6 | OC[C@H]1NC[C@@H](O)[C@H](O)[C@@H]1O | – | 18.8 | – | 10.9 | 24.2 | – | IC50 [14]: 194 µM; inhibition (Rhizopus): 7%
– | 0.4 | 5.8 | 7.6 | 0 | – | 7.4 | 16 | 12.1 | 25.2 | 0 | – | – | OC[C@H](O)[C@@H]1NC[C@@H]1O | 19 | – | 4.6 | – | – | 105 | IC50 [3]: 70 µM; IC50 [13]: 634 µM; IC50 [15]: 347 µM; IC50 [16]: 607 µM; IC50 (Alpha-glucosidase): 39 µM
– | – | – | – | – | – | – | – | – | – | – | – | – | O[C@H]1[C@H](O)[C@@H](O)CN2CC[C@H](O)[C@H]12 [CASTANOSPERMINE] | – | – | – | – | – | 8 | –

Compound | inhibition (Aspergillus niger [1]) [%] | inhibition (Aspergillus niger [2]) [%] | inhibition (Sus scrofa) [%] | inhibition (Coffea) [%] | inhibition (Escherichia coli) [%] | inhibition (Penicillium decumbens) [%] | inhibition [4] [%] | inhibition (Saccharomyces cerevisiae) [%] | inhibition (Oryza sativa) [%] | inhibition [7] [%] | inhibition (Helix pomatia) [%] | inhibition [9] [%] | inhibition (Rattus norvegicus [12]) [%] | IC50 [5] [µM] | inhibition (Prunus dulcis) [%] | inhibition [6] [%] | inhibition [8] [%] | inhibition (Rattus norvegicus [10]) [%] | IC50 [11] [µM] | also measured
O[C@@H]1[C@H](O)[C@H]2[C@@H](O)CN2C[C@H]1O [(3R,4S,5R,6R,7S)-3,4,5,7-TETRAHYDROXYCONIDINE] | 31.3 | 1.8 | 9 | 3.5 | 0 | 2 | 7.8 | 0 | 13.8 | 43.4 | 0 | 47.3 | – | 532 | 31.1 | 2 | 18.9 | 30.3 | – | IC50 [3]: 418 µM
O[C@H]1CCCN2C[C@H](O)[C@H]12 | – | 0 | 1 | 8.4 | 13.2 | – | 0 | 1.6 | 0 | 14 | 0 | – | 32.2 | 243 | 0 | 0 | 9.7 | 14.3 | 930 | IC50 [13]: 117 µM; IC50 (Alpha-glucosidase): 307 µM
